Values quoted from earlier work, collected in patent US20110086911A1, “NOVEL BISMUTH(III) NSAID COMPOUNDS AND METHODS FOR THEIR USE” (Monash University, priority 2009, published 2011).

Tested on: H. pylori strains B128, 251 and 26695
Settings: comparison values for substances not listed among those tested

Compound	MIC value [µg/mL]
CNC(=C[N+](=O)[O-])NCCSCc1ccc(CN(C)C)o1.O=C([O-])CC(O)(CC(=O)[O-])C(=O)[O-].[Bi+3] [RBC, ranitidine bismuth citrate]	8
colloidal bismuth subcitrate [CBS]	≥ 12.5
